In one test the target is T1, SARS-CoV2 WT M^pro (Severe acute respiratory syndrome coronavirus 2, UniProt P0DTC1).
T1 construct: codon-optimized cDNA of SARS-CoV-2 M^pro (QIZ13716.1_ORF1a) was cloned into the pET28a vector; host or cells: E. coli
The test is classed as biochemical, SARS-CoV-2.

The next test deals with caspase 3 (Homo sapiens, UniProt P42574). The test is classed as biochemical.
For a further test, the system named is CoV-OC43. In words: organism not typed. The test is classed as cell-based.
The target in the next test is T2, CoV-HKU1 M^pro (Human coronavirus HKU1, UniProt P0C6X2).
T2 construct: M^pro proteins from other human CoVs were also cloned, expressed in E. coli and purified by WuXi AppTec; host or cells: E. coli
T2 sequence (P0C6X2 3335-3637 limits assumed): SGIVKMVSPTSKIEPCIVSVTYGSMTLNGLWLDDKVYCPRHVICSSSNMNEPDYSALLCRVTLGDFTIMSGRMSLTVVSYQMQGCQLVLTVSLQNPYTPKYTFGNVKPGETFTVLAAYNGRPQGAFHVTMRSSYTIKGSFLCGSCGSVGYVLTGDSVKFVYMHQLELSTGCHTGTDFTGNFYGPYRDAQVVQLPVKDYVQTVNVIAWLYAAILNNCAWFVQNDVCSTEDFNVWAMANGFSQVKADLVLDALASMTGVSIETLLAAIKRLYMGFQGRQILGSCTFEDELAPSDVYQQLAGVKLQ
In words: biochemical.

The next test concerns the target cathepsin B (Homo sapiens, UniProt P07858). In words: biochemical.
Another test deals with T3, CoV-229E M^pro (Human coronavirus 229E, UniProt P0C6X1).
T3 construct: M^pro proteins from other human CoVs were also cloned, expressed in E. coli and purified by WuXi AppTec; host or cells: E. coli
T3 sequence (P0C6X1 2966-3267 limits assumed): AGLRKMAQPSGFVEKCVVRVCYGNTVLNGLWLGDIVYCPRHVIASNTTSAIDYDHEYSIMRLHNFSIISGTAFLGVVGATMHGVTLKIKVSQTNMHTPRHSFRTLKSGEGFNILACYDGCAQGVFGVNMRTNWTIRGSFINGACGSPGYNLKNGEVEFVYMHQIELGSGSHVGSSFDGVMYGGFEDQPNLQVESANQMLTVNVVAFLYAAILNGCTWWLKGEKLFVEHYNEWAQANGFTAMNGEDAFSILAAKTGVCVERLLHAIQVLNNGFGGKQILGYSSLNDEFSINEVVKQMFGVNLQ
In words: biochemical.

For the next test, the system named is CoV-229E. In words: organism not typed. The test is classed as cell-based.
The target of a further test is T4, CoV-OC43 M^pro (Human coronavirus OC43, UniProt P0C6X6).
T4 construct: M^pro proteins from other human CoVs were also cloned, expressed in E. coli and purified by WuXi AppTec; host or cells: E. coli
T4 sequence (P0C6X6 3247-3549 limits assumed): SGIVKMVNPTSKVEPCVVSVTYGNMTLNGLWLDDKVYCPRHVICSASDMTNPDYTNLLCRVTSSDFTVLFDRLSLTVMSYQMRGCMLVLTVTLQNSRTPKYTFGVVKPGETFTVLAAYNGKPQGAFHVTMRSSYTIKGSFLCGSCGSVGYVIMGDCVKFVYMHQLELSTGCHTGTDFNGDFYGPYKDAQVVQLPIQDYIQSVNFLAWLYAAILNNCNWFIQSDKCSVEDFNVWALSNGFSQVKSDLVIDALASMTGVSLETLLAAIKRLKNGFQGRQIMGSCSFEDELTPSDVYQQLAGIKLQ
In words: biochemical.

The subject of another test is SARS-CoV-2 Epsilon. In words: microbe, parasite or virus in culture. The test is classed as cell-based.
Test [1] deals with SARS-CoV-2 BA.2.12.1 Omicron. In words: microbe, parasite or virus in culture. The test is classed as cell-based.
For test [2], the system named is SARS-CoV-2 BA.4.1 Omicron. In words: microbe, parasite or virus in culture. The test is classed as cell-based.
For a further test, the target named is dipeptidyl peptidase IV (Homo sapiens, UniProt P27487). The test is classed as biochemical.
dipeptidyl peptidase IV, sequence (P27487 whole entry): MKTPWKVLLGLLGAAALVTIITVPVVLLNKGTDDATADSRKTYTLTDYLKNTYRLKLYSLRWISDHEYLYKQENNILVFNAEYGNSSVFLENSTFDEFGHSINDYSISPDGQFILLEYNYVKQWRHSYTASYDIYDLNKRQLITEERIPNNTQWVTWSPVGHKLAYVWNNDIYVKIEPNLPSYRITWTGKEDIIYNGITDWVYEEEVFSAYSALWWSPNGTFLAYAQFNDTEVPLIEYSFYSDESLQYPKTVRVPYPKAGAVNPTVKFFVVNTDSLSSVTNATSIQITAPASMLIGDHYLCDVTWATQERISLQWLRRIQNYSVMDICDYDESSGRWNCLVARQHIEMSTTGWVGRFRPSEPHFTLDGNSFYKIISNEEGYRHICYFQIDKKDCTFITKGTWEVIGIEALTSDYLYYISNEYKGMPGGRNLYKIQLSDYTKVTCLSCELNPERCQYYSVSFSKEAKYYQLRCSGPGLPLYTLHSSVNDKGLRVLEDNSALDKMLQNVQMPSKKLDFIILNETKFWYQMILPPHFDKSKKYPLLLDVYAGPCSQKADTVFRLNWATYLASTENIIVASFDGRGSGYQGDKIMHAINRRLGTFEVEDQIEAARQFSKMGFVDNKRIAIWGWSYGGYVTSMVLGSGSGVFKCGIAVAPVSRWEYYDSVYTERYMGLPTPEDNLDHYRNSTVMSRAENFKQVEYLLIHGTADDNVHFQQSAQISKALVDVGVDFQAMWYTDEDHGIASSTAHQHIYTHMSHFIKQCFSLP
For the next test, the system named is elastase. The test is classed as biochemical, human.
A further test deals with SARS-CoV-2 BA.2 Omicron. In words: microbe, parasite or virus in culture. The test is classed as cell-based.
A further test concerns the target calpain1 (Homo sapiens, UniProt P07384). The test is classed as biochemical.
For a further test, the system named is SARS-CoV-2 WA1 NLuc. In words: microbe, parasite or virus in culture. The test is classed as cell-based.
The target in another test is thrombin (Homo sapiens, UniProt P00734). The test is classed as biochemical.
The target of the next test is chymotrypsin C (Homo sapiens, UniProt Q99895). The test is classed as biochemical.
chymotrypsin C, sequence (Q99895 30-268): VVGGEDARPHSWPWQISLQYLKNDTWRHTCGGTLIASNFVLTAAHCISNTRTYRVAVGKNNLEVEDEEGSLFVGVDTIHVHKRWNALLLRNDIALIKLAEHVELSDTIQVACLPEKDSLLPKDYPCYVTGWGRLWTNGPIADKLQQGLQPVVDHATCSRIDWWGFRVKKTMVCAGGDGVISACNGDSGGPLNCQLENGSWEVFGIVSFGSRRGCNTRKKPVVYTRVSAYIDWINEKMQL
In test [3] the test system is SARS-CoV-2. Particulars: human, in vivo; cited from earlier work.
In a further test the target is T5, SARS-CoV-2 M^pro (Severe acute respiratory syndrome coronavirus 2, UniProt P0DTC1).
T5 construct: composed of about 300 amino acids embedded in the polyproteins as the nsp5 domain; purchased BPS Biosciences
The test is classed as biochemical.

A further test has as its system SARS-CoV-2 Alpha. In words: microbe, parasite or virus in culture. The test is classed as cell-based.
In test [4] the test system is SARS-CoV-2 Wuhan replicon (WT). In words: microbe, parasite or virus in culture. The test is classed as cell-based.
The target in the next test is T6, CoV-NL63 M^pro (Human coronavirus NL63, UniProt P0C6X5).
T6 construct: M^pro proteins from other human CoVs were also cloned, expressed in E. coli and purified by WuXi AppTec; host or cells: E. coli
T6 sequence (P0C6X5 2940-3242 limits assumed): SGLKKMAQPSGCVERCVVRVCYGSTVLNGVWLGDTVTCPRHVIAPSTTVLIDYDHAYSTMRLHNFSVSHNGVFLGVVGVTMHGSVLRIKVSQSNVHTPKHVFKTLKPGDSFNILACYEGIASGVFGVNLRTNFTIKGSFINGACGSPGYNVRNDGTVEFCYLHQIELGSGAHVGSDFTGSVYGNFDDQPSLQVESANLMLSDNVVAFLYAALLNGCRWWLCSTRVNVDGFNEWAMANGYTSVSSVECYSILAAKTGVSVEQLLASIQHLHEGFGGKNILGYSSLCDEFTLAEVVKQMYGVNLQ
In words: biochemical.

A further test deals with SARS-CoV-2 AY.20 Delta. In words: microbe, parasite or virus in culture. The test is classed as cell-based.
Another test deals with cathepsin K (Homo sapiens, UniProt P43235). In words: biochemical.
cathepsin K, sequence (P43235 115-329): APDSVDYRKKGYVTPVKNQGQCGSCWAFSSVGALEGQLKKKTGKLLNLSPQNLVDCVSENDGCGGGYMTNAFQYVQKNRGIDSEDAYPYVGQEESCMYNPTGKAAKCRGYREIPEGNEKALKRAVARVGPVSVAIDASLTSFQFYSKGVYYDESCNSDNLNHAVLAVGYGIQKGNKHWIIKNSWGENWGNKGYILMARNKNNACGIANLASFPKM
Another test relates to SARS-CoV-2 Mu. In words: microbe, parasite or virus in culture. The test is classed as cell-based.
The target in a further test is cathepsin S (Homo sapiens, UniProt P25774). In words: biochemical.
cathepsin S, sequence (P25774 115-331): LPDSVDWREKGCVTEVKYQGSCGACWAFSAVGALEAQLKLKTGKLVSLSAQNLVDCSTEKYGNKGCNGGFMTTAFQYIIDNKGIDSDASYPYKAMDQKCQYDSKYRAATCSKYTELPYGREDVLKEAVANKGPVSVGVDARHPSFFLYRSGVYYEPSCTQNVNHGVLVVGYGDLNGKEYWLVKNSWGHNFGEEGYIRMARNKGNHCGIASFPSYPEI
The next test concerns the target cathepsin D (Homo sapiens, UniProt P07339). The test is classed as biochemical.
Test [5] concerns SARS-CoV-2 BA.1.1 Omicron. In words: microbe, parasite or virus in culture. The test is classed as cell-based.
Test [6] has as its system SARS-CoV-2 BA.5.2.1 Omicron. In words: microbe, parasite or virus in culture. The test is classed as cell-based.
The target of another test is caspase-2 (Homo sapiens, UniProt P42575). The test is classed as biochemical.
caspase-2, sequence (P42575 170-325): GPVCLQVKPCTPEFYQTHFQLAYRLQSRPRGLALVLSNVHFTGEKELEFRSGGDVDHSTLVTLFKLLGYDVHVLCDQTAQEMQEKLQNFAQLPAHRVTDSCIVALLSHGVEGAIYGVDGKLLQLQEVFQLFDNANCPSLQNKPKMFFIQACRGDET
caspase-2, sequence (P42575 348-452): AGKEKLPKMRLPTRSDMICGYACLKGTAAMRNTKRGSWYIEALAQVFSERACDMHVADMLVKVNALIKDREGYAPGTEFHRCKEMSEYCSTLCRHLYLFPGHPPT
A further test has as its system SARS-CoV-2 Delta. In words: microbe, parasite or virus in culture. The test is classed as cell-based.
For another test, the target named is cathepsin L (Homo sapiens, UniProt P07711). In words: biochemical.
cathepsin L, sequence (P07711 114-333): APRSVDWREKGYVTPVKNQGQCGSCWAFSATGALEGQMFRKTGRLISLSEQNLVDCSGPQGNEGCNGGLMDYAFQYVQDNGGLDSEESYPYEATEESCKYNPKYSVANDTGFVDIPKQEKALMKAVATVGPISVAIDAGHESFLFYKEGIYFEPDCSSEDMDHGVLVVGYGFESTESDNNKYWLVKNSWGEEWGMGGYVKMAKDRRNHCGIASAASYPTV
Test [7] relates to SARS-CoV-2. To be noted: in vivo; cited from earlier work.
The mark [8] stands for this setting: Severe acute respiratory syndrome coronavirus 2, read-out: EC50 Mean (SD).
[9] abbreviates: Severe acute respiratory syndrome coronavirus 2, read-out: EC90 Mean (SD).

Read-outs that look alike come from different tables or passages of the source.

calpain1, sequence (P07384 whole entry): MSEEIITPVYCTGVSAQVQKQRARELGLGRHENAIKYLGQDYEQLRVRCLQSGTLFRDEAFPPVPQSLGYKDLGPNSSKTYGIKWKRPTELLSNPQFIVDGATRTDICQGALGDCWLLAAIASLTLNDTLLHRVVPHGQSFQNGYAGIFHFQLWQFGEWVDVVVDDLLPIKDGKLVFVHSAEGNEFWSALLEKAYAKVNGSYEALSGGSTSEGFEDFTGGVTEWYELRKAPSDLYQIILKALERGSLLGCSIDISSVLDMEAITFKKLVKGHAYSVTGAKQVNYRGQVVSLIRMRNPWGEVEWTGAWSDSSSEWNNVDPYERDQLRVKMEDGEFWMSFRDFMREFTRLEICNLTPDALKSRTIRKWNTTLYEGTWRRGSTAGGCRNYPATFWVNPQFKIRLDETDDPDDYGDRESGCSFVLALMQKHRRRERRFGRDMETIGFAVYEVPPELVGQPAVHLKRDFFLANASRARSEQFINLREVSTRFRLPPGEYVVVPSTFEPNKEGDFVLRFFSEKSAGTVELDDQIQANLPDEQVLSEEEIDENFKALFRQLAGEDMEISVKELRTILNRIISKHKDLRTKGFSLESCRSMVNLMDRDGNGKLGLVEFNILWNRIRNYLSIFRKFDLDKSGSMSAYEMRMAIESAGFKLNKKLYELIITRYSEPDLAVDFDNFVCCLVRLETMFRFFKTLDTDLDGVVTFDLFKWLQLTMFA
calpain1, sequence (P04632 whole entry, further chain): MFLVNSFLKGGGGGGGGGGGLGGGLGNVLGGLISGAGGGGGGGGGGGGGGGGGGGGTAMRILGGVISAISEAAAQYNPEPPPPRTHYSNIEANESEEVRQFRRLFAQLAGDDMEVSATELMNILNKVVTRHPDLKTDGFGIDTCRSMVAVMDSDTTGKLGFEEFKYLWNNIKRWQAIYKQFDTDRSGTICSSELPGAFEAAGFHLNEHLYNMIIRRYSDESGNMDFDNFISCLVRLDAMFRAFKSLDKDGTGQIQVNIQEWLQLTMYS
caspase 3, sequence (P42574 29-175): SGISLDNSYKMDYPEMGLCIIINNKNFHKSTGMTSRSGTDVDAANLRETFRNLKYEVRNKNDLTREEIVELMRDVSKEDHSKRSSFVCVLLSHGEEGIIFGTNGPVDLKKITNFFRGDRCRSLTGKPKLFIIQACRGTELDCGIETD
caspase 3, sequence (P42574 176-277): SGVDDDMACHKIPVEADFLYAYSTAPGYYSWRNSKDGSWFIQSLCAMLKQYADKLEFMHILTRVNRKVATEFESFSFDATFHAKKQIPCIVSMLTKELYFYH
cathepsin D, sequence (P07339 65-412): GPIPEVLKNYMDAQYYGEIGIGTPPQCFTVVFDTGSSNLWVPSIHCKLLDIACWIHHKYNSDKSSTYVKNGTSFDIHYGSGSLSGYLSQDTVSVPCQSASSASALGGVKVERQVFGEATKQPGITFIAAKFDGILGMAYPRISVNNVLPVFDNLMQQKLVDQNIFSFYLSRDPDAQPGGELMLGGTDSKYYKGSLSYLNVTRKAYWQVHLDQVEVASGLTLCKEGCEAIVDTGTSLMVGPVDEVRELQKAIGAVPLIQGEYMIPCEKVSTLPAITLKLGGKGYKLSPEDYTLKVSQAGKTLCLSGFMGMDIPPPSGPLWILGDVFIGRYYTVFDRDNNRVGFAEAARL

At SARS-CoV2 WT M^pro, GC376 gave an IC50 of 20 nM.

As to `N#C[C@H](C[C@@H]1CCCNC1=O)NC(=O)[C@H](CC1CC1)NC(=O)c1cc2cccc(Cl)c2[nH]1` [pomotrelvir], the inhibitory activity entry on caspase 3, against dipeptidyl peptidase IV, with elastase, against calpain1, on thrombin and at chymotrypsin C was “no inhibitory activity was observed” throughout. For the same compound, the inhibitory activity entry on cathepsin D and against caspase-2 was “no inhibitory activity was observed” in each case. The 50% effective concentration (EC50) was found to be 380 nM in the test with CoV-OC43 (Huh-7, read-out: Mean EC50 (SD)); 180 nM with CoV-229E (read-out: Mean EC50 (SD)); 195 nM in the test with SARS-CoV-2 Epsilon (setting [8]); 60 nM in test [1] (setting [8]); 244 nM in test [2] (setting [8]); 139 nM in the test with SARS-CoV-2 BA.2 Omicron (read-out: EC50 Mean (SD)). Also, the EC50 with SARS-CoV-2 WA1 NLuc (read-out: Mean EC50 (SD)) turned out to be 23 nM; in the test with SARS-CoV-2 Alpha (setting [8]) it was 95 nM; in test [4] (Severe acute respiratory syndrome coronavirus 2, Huh-7, read-out: EC50 Mean (SD)), 31 nM; in test [4] (read-out: Mean EC50 (SD)), 27 nM; in the test with SARS-CoV-2 AY.20 Delta (setting [8]), 374 nM; in the test with SARS-CoV-2 Mu (setting [8]), 73 nM. Moreover, the values for the EC50 (in test [5] (setting [8]); in test [6] (setting [8]); in the test with SARS-CoV-2 Delta (setting [8])) were 94 nM, 256 nM and 251 nM, respectively. In addition, the EC90 came out at 490 nM with CoV-OC43 (Huh-7, read-out: Mean EC90 (SD)); 410 nM with CoV-229E (MRC5, read-out: Mean EC90 (SD)); 777 nM in the test with SARS-CoV-2 Epsilon (setting [9]); 171 nM in test [1] (setting [9]); 1120 nM in [2] (setting [9]); 668 nM in the test on SARS-CoV-2 BA.2 Omicron (setting [9]). For the same compound, the EC90 in the test with SARS-CoV-2 WA1 NLuc (Severe acute respiratory syndrome coronavirus 2, A549-ACE2, read-out: Mean EC90 (SD)) was found to be 114 nM; in the test on SARS-CoV-2 Alpha (setting [9]) it was 144 nM; in test [4] (Severe acute respiratory syndrome coronavirus 2, Huh-7, read-out: EC90 Mean (SD)) it was 170 nM; in test [4] (read-out: Mean EC90 (SD)), 150 nM; in the test with SARS-CoV-2 AY.20 Delta (setting [9]), 672 nM; in the test with SARS-CoV-2 Mu (setting [9]) it was 195 nM. Besides, the 90% effect concentration (EC90) in test [5] (setting [9]) was determined as 213 nM; in [6] (setting [9]), 1270 nM; with SARS-CoV-2 Delta (setting [9]) it was 425 nM. The IC50 on CoV-HKU1 M^pro worked out at 61 nM; on CoV-229E M^pro, 141 nM; against CoV-OC43 M^pro it was 158 nM; against CoV-NL63 M^pro it was 206 nM. The Ki at cathepsin B came to 1270 nM; on cathepsin K it was 289 nM; on cathepsin S, 445 nM; on cathepsin L it was 7400 nM. Besides, in the test on SARS-CoV-2 [3], the “primary endpoint: proportion of patients below the limit of detection by infectious virus assay on day 3 of treatment” value is given as “did not meet the primary endpoint”. Besides, the alpha factor at SARS-CoV-2 M^pro is given as 10.4.

With `CC(C)C[C@@H](C(=O)N1C[C@]2(C[C@H]1C#N)C(=O)Nc1ccccc12)N(C)C(=O)c1cc2c(F)cc(F)c(F)c2[nH]1` [EDP-235], the “effect on viral RNA decline or infectious viral load in nasal samples” value in the test with SARS-CoV-2 [7] is reported as “failed to demonstrate the effect on viral RNA decline or infectious viral load in nasal samples”.

Values taken from publication PMC10649086 (Antimicrobial Agents and Chemotherapy, 2023).
